In article PMC9260081, “Design, Synthesis, and Evaluation of Anticonvulsant Activities of New Triazolopyrimidine Derivatives” (Frontiers in Chemistry, 2022):
Several values for one entry are separate records, joined by “and”; a condition that tells them apart may be missing. Equal entries are not always repeated. Where two headings read alike, the source gives them in different places. Marks after values point to notes of the source that are not given here.

What was measured:
[1] = tested on: PTZ-induced seizures; experiment: Subcutaneous pentylenetetrazole (PTZ) test; format: in vivo, mice; details: for ED50 / minimal effective dose: Mus musculus; for ED50 / PI scPTZ, protective index (TD50/ED50) / minimal effective dose: ip; for ED50: read-out: ED50 scPTZ; for PI scPTZ, protective index (TD50/ED50): male, Kunming, mouse, in vivo; for minimal effective dose: dosages 30, 100, 300 mg/kg, read-out: PTZ screening, minimum dose whereby bioactivity was demonstrated in half or more of the mice; for PTZ model, number of animals protected/number of animals tested: 30 mg/kg, 0.5 h
Method: (§1) Male Kunming mice with weights from 18 to 22 g were used in all the pharmacological experiments. The mice were housed in the standard cages with 10 each, where a controlled temperature (25°C ± 2°C) with a 12 h light/dark cycle was maintained. All animals had free access to food and water. All experiments and procedures involving animals were carried out according to the Guide for the Care and Use of Laboratory Animals (National Academies Press, Washington, D.C., United States). Approval from the local medical ethical committee was obtained before the experiment.
In the PTZ test, mice were subcutaneously administered with PTZ at the dose of 85 mg/kg. At this dose, mice can be elicited a threshold seizure characterized by an episode of clonic spasms and tonic spasms. After being treated with test compounds at doses of 300, 100, and 30 mg/kg, the mice were considered protected if a single episode of clonic spasms of more than 5 s duration was not obtained. The quantitative anticonvulsant activity (ED50) in the PTZ model was determined and calculated with the same method described in the MES test.

[2] = tested on: BIC-induced seizures; experiment: Bicuculline (BIC)-induced seizure test; format: in vivo; details: BIC 5.4 mg/kg, compound 30 mg/kg, test time 0.5 h, percentage of animals, 10 mice
Method: as §1
(§2) In the BIC-induced seizure test, groups of 10 mice were administered with 30 mg/kg of test samples or vehicle. Then, 30 min later, the minimum dose of BIC (5.4 mg/kg) that could completely induce seizures for mice was subcutaneously injected into the test mice. The mice were placed into separate cages each, and the number of clonic seizures, tonic seizures, and mortality was recorded for 30 min.

[3] = tested on: MES-induced seizures; experiment: Maximal electroshock seizure (MES) test; format: in vivo, mice; details: for ED50 / minimal effective dose: Mus musculus, ip; for ED50: read-out: ED50 MES; for PI MES, protective index (TD50/ED50): TD50 rotarod / ED50 MES, mice i.p.; for minimal effective dose: dosages 30, 100, 300 mg/kg, read-out: MES screening, minimum dose whereby bioactivity was demonstrated in half or more of the mice; for MES model, number of animals protected/number of animals tested: 30 mg/kg, 0.5 h
Method: as §1
In the MES test, mice were subjected to ear stimulation using a 0.2 s 60-Hz 50-mA alternating current to elicit seizures. Tonic hind limb extension was considered as the seizure occurring, and the vanishing of tonic hind limb extension indicates the protection against the MES-induced seizures. Mice were injected intraperitoneally with test compounds at doses of 300, 100, and 30 mg/kg to evaluate their general anticonvulsant activity. Half and 4 h intervals were chosen to test the anti-MES activity. […] A series of doses of the tested compounds were injected into the mice with 10 in one group.

[4] = Neurotoxicity screening (rotarod test); format: in vivo; details: male, Kunming, mouse, in vivo, ip; rotarod, mice; 95% confidence interval in brackets
Method: as §1
(§3) The rotarod test was used to evaluate the neurotoxicity of the synthesized compounds. Before the formal experiments, mice were trained to climb on a rotating rod of diameter 3.2 cm with the rotation speed of 10 rpm. Test compounds in the three doses were intraperitoneally injected into the trained mice. […] The rough neurotoxic dose was obtained in which mice cannot maintain equilibrium on the rod for at least 1 min. The quantitative neurotoxic dose (TD50) of the test compounds was measured and calculated with the same method described in the MES test.

[5] = tested on: 3-MP-induced seizures; experiment: 3-Mercaptopropionic acid (3-MP)-induced seizure test; format: in vivo; details: 3-MP 60 mg/kg; compound 30 mg/kg, test time 0.5 h; percentage of animals, 10 mice
Method: as §1
as §2, with “3-MP–induced” for “the BIC-induced”, “After” for “Then,”, “min,” for “min later,”, “3-MP (60” for “BIC (5.4”, “intraperitoneally” for “subcutaneously”

[6] = tested on: ability to maintain equilibrium on rotating rod; experiment: Neurotoxicity screening (rotarod test); format: in vivo; details: i.p., dosages 30, 100, 300 mg/kg
Method: as §1, §3

[7] = molecular target: GABAA BZD receptor; experiment: Radioligand receptor binding assay ([3H]-flumazenil competition); details: rat brain membranes; for IC50: competition with 0.5 nM [3H]-flumazenil, 95% CI in brackets; for Ki: competition with [3H]-flumazenil, Cheng–Prusoff
[8] = mice, 95% confidence interval in brackets
[9] = pretreated with flumazenil (FMZ) 10 mg/kg 15 min before seizure induction
[10] = pretreated with thiosemicarbazide (TSC) 25 mg/kg/day for 3 days

| Structure (SMILES) | ED50 [1, 8] | PI scPTZ, protective index (TD50/ED50) [1] | Clonic seizure (%) [2] | Lethality (%) [2] | Tonic seizure (%) [2] | ED50 [3, 8] | PI MES, protective index (TD50/ED50) [3] | TD50 at 30 min [4] | minimal effective dose ([1]; mice, 0.5 h after injection) | minimal effective dose ([1]; mice, 4 h after injection) | minimal effective dose ([3]; mice, 0.5 h after injection) | minimal effective dose ([3]; mice, 4 h after injection) | NT screening (rotarod), minimum neurotoxic dose in half or more of the mice ([6]; 0.5 h after injection) | NT screening (rotarod), minimum neurotoxic dose in half or more of the mice ([6]; 4 h after injection) | melting point | IC50 [7] | Ki [7] | further results |
| --- | --- | --- | --- | --- | --- | --- | --- | --- | --- | --- | --- | --- | --- | --- | --- | --- | --- | --- |
| NC(=O)N1c2ccccc2C=Cc2ccccc21 [Carbamazepine, reference compound] | > 100 mg/kg | <0.44 | 100% | 20** % | 0*** % | 9.8 mg/kg | 4.5 | 44 mg/kg | – | – | – | – | – | – | – | – | – | Lethality (%) ([2]; listed as carbamazepine): significantly inhibited; Tonic seizure (%) ([2]; listed as carbamazepine): significantly inhibited; Clonic seizure (%) [5]: 100%; Lethality (%) [5]: 0** %; Tonic seizure (%) [5]: 0*** % |
| c1ccc(-c2ccnc3ncnn23)cc1 [Compound 3a, 7-Phenyl-[1,2,4]triazolo[1,5-a]pyrimidine] | – | – | – | – | – | – | – | – | 100 mg/kg | > 300 mg/kg | 300 mg/kg | > 300 mg/kg | — (A dash indicates the absence of anticonvulsant activity and neurotoxicity at the maximum dose administered (300 mg/kg)) | — (A dash indicates the absence of anticonvulsant activity and neurotoxicity at the maximum dose administered (300 mg/kg)) | 142 to 143 °C | – | – | – |
| Clc1ccccc1-c1ccnc2ncnn12 [Compound 3c, 7-(2-Chlorophenyl)-[1,2,4]triazolo[1,5-a]pyrimidine] | – | – | – | – | – | – | – | – | 100 mg/kg | > 300 mg/kg | 100 mg/kg | > 300 mg/kg | — (A dash indicates the absence of anticonvulsant activity and neurotoxicity at the maximum dose administered (300 mg/kg)) | — (A dash indicates the absence of anticonvulsant activity and neurotoxicity at the maximum dose administered (300 mg/kg)) | 148 to 149 °C | – | – | – |
| CCCCCCOc1ccc(-c2ccnc3ncnn23)cc1 [Compound 6d, 7-(4-(Hexyloxy)phenyl)-[1,2,4]triazolo[1,5-a]pyrimidine] | 14.1 mg/kg | 22.5 | 10% | 0% | 0% | 15.8 mg/kg | 20.1 | 317 mg/kg | 30 mg/kg | > 300 mg/kg | 30 mg/kg | 100 mg/kg | 300 mg/kg | — (A dash indicates the absence of anticonvulsant activity and neurotoxicity at the maximum dose administered (300 mg/kg)) | – | 8.4 nM | 3.9 nM | PTZ model, number of animals protected/number of animals tested [1, 9]: completely reversed and 0/5***; PTZ model, number of animals protected/number of animals tested [1, 10]: completely reversed and 0/5***; PTZ model, number of animals protected/number of animals tested ([1]; pretreatment with saline): full protection and 5/5; MES model, number of animals protected/number of animals tested [3, 9]: completely reversed and 0/5***; MES model, number of animals protected/number of animals tested [3, 10]: completely reversed and 0/5***; MES model, number of animals protected/number of animals tested ([3]; pretreatment with saline): full protection and completely protected and 5/5 ^c and 5/5 |
| CN1C(=O)CN=C(c2ccccc2)c2cc(Cl)ccc21 [Diazepam, reference compound] | – | – | – | – | – | – | – | – | – | – | – | – | – | – | – | 1.3 nM | 0.61 nM | ED50 [1]: 0.5 mg/kg; ED50 [3]: 10.1 mg/kg |
